From US20230295157A1, “3-(1H-IMIDAZOL-2-YL)-2,3,8,8A-TETRAHYDROINDOLIZIN-5(1H)-ONE DERIVATIVES USEFUL AS FACTOR XIA INHIBITORS” (JANSSEN PHARMACEUTICA NV, priority 2020, published 2023)
Like-named read-outs stand apart in the source and are kept apart here.

Legend:
Factor XIa = Factor XIa (Homo sapiens (Human), UniProt P03951); experiment: Factor XIa inhibition assay (FLINT) utilizing a fluorophore-quencher pair peptide substrate; assay type: biochemical; conditions: 30 min preincubation, kinetic reads over 30 min, read-out: FXIa Kin Inh IC50
Sequence of Factor XIa (P03951 388-625): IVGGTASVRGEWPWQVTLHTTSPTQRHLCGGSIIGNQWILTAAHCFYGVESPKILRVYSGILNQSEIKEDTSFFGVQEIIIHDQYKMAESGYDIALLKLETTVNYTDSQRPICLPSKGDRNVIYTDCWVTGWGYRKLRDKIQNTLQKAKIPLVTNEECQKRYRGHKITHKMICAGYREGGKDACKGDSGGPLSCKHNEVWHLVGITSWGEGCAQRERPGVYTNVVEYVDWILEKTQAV
Sequence of Factor XIa (P03951 19-387 partner): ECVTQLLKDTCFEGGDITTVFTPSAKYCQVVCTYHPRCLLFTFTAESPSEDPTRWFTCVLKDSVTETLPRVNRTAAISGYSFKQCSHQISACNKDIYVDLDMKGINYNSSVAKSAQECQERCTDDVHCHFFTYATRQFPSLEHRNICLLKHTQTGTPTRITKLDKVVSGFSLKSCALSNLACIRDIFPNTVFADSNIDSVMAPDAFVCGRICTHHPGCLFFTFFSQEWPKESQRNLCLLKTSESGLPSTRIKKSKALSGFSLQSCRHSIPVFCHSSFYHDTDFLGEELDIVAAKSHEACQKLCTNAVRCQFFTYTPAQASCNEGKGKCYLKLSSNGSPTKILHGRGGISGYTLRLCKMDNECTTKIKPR
Description: Biological Example 1: Factor XIa Inhibition Assay Utilizing a Fluorophore-Quencher Pair Peptide Substrate
A fluorescence intensity (FLINT) based assay was used to monitor inhibition of Factor XIa. The peptide substrate, 5Fam-[…]-K5Tamra (purchased from New England Peptide) was chosen based on the FXI sequence. Conversion of zymogen […]. The custom peptide used in this assay was based on the Arg146 cleavage site of FXI. The peptide substrate was designed with a fluorophore-quencher pair, where the fluorescence is quenched until FXIa cleaves the 8-mer peptide after the Arg residue.
The Factor XIa FLINT assay was used with the following 5Fam-[…]-K5Tamra assay buffer: 50 mM Tris, pH 7.5, 100 mM NaCl, 5 mM CaCl2), 0.1 mg/mL BSA, 0.03% CHAPS. Assay buffer was prepared by mixing all ingredients fresh. 5Fam-[…]-K5Tamra peptide substrate was first prepared at 10 mM in 100% DMSO, then diluted to 3 mM in 100% DMSO. Assay buffer was then added directly to the 3 mM stock of substrate to prepare the 30 μM 2× working concentration (15 μM final concentration). The 2×Factor XIa stock solution was prepared by diluting 6.562 μM stock in 1×assay buffer for a 200 μM working stock solution (100 μM final concentration).
Test compound(s) were run in an 11-point, 3-fold serial dilution with a final top compound concentration of 100 nM. Final DMSO in assay was 2%. FXIa was preincubated with compound for 30-minutes and then substrate was added to initiate the reaction. The assay was run with kinetic (KIN) reads at 5 min intervals over 30 minutes. The time course was linear using 100 μM FXIa greater than 30 minutes. More specifically, the assay was run as follows: • 100 nL of 0.01 mM test compound was dispensed into black 384 well non-binding Greiner BioOne 784900 plate for 0.1 μM final concentration; • 5 μL of 1×assay buffer was dispensed to column 24 (low control) and 5 μL 2×Factor XIa solution was dispensed to columns 1-23 (column 23 high control); • the plate was centrifuged with a “cover” plate at 500 rpm for 1 min • the plate was pre-incubated for 30 minutes at room temperature with plate covered; • 5 μL of 2×5Fam-[…]-K5Tamra peptide substrate was dispensed into the entire plate, columns 1-24; • the plate was centrifuged with a “cover” plate at 500 rpm for 1 min; • the plate was read monitoring fluorescence intensity on the BMG PHERAStar at room temperature, using fluorescence module 485 nm/520 nm.
(§1) Percent inhibition (IC50) curves were generated per compound tested, and data was analyzed using a 4-parameter logistic fit using GeneData Screener. The relative fluorescence unit (RFU) values were normalized to percent inhibition using the following equation:
% inhibition=((HC-LC)−(compound−LC)/(HC-LC))*100
where LC—low control=mean signal of no Factor XIa or 100% inhibition of Factor XIa; HC—high control=mean signal of Factor XIa+5Fam-[…]-K5Tamra peptide substrate with DMSO only.
(§2) An 11-point dose response curve for the test compound(s) was generated using GENDATA to determine IC50 value based on the following equation:
Y=Bottom+(Top-Bottom)/(1+10^((logIC50-X)*HillSlope))
where Y is the % inhibition in the presence of X inhibitor concentration, Top=high control=mean signal of Factor XIa+5Fam-[…] K5Tamra peptide substrate with DMSO only; Bottom=low control−mean signal of no Factor XIa or 100% inhibition of Factor XIa; HillSlope—Hill coefficient; and IC50=concentration of compound with 50% inhibition in relation to top/high control.
Representative compounds of the present invention were tested according to the procedure described in Biological Example 1 and Biological Example 2 above, with results as listed in Table 3, below.

human plasma kallikrein = human plasma kallikrein (Homo sapiens (Human), UniProt P03952); experiment: Kallikrein inhibition assay (FLINT) utilizing a quenched AMC peptide substrate; assay type: biochemical; conditions: 30 min preincubation, kinetic reads over 30 min, Z-Gly-Pro-Arg-AMC substrate 50 μM; read-out: Kallikrein Kin Inh IC50
Sequence of human plasma kallikrein (P03952 391-638): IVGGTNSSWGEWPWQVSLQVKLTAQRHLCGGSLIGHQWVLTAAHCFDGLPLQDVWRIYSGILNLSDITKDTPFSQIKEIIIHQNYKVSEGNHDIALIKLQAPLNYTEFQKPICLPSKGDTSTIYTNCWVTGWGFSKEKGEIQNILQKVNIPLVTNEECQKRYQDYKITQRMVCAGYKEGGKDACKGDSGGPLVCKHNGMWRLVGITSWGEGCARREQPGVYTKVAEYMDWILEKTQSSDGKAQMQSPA
Sequence of human plasma kallikrein (P03952 20-390 partner): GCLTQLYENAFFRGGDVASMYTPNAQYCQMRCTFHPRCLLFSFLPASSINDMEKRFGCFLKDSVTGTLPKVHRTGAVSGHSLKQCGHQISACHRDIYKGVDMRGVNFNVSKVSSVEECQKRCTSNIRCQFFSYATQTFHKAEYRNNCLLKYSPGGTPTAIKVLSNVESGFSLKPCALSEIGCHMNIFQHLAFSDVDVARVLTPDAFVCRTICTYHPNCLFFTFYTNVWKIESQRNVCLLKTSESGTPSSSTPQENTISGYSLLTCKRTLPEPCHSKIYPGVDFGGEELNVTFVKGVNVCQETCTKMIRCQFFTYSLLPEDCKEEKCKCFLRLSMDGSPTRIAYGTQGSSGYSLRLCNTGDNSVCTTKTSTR
Method: Biological Example 2: Kallikrein Inhibition Assay Utilizing a Quenched AMC Peptide Substrate A fluorescence intensity (FLINT) based assay was used to monitor inhibition of human plasma kallikrein.
The Kallikrein FLINT assay was used with the following Z-Gly-Pro-Arg-AMC assay buffer: 50 mM Tris, pH 7.5, 100 mM NaCl, 5 mM CaCl2), 0.1 mg/mL BSA, 0.03% CHAPS. Assay buffer was prepared by mixing all ingredients fresh. 2×Z-Gly-Pro-Arg-AMC peptide substrate was prepared by diluting 10 mM stock into 1×assay buffer for a 100 μM working concentration (50 μM final concentration). The 2×kallikrein stock solution was prepared by diluting 14.76 μM stock in 1×assay buffer for a 4 nM working stock solution (2 nM final concentration).
Test compound(s) were run in an 11-point, 3-fold serial dilution with a final top compound concentration of 1 μM. Final DMSO in assay was 2%. Plasma kallikrein was pre-incubated for 30-minute with compound and then 50 μM substrate was added to initiate the reaction. The assay was run with kinetic (KIN) reads at 5 min intervals over 30 minutes. […] More specifically, the assay was run as follows: • 100 nL of 0.1 mM test compound was dispensed into black 384-well non-binding Greiner BioOne 784900 plate for 1 μM final concentration; • 5 μL of 1×assay buffer was dispensed to columns 24 (low control) and 5 μL 2×human kallikrein enzyme solution was dispensed to columns 1-23 (column 23 high control); • the plate was centrifuged with a “cover” plate at 500 rpm for 1 min • the plate was pre-incubated for 30 minutes at room temperature with plate covered; • 5 μL of 2×Z-Gly-Pro-Arg-AMC peptide substrate was dispensed into the entire plate, columns 1-24; • the plate was centrifuged with a “cover” plate at 500 rpm for 1 min; • the plate was read monitoring fluorescence intensity on the BMG PHERAStar at room temperature, using fluorescence module 340 nm/440 nm.
as §1
% inhibition=((HC-LC)−(compound-LC)\(HC-LC))*100 where LC—low control=mean signal of human kallikrein enzyme or 100% inhibition of human kallikrein enzyme; HC—high control=mean signal of Factor XIa+Z-Gly-Pro-Arg-AMC peptide substrate with DMSO only.
as §2
Y=Bottom+(Top-Bottom)/(1+10^((logIC50−X)*HillSlope)) where Y is the % inhibition in the presence of X inhibitor concentration, Top=high control=mean signal of human kallikrein enzyme+Z-Gly-Pro-Arg-AMC peptide substrate with DMSO only; Bottom=low control−mean signal of no human kallikrein enzyme or 100% inhibition of human kallikrein enzyme; HillSlope—Hill coefficient; and IC50=concentration of compound with 50% inhibition in relation to top/high control.

[1] = 5Fam-[…]-K5Tamra substrate 15 μM
[2] = 5Fam-KLTRAETV-K5Tamra substrate 15 μM

| SMILES | IC50 (Factor XIa; [1]) [nM] | IC50 (human plasma kallikrein) [nM] | IC50 (Factor XIa; [2]) [nM] |
| --- | --- | --- | --- |
| O=C1C=C(c2c(-n3cnnn3)ccc(Cl)c2F)CC2CC[C@H](c3nc(F)c(-c4ccnc(N[C@H]5CCOC5)c4F)[nH]3)N12 (relative stereo) [Example 77, (3R*)-7-(3-chloro-2-fluoro-6-(1H-tetrazol-1-yl)phenyl)-3-(4-fluoro-5-(3-fluoro-2-(((S)-tetrahydrofuran-3-yl)amino)pyridin-4-yl)-1H-imidazol-2-yl)-2,3,8,8a-tetrahydroindolizin-5(1H)-one] | 1.3 | 5 |  |
| O=C1C=C(c2c(-n3cnnn3)ccc(Cl)c2F)C[C@H]2CC[C@H](c3ncc(-c4ccnc(-n5cnnc5)c4F)[nH]3)N12 (relative stereo) [Example 78, (3R*,8aR)-7-(3-chloro-2-fluoro-6-(1H-tetrazol-1-yl)phenyl)-3-(5-(3-fluoro-2-(4H-1,2,4-triazol-4-yl)pyridin-4-yl)-1H-imidazol-2-yl)-2,3,8,8a-tetrahydroindolizin-5(1H)-one] | 40.9 | 136 |  |
| C[C@H](Oc1nccc(-c2cnc([C@@H]3CC[C@H]4CC(c5c(-n6cnnn6)ccc(Cl)c5F)=CC(=O)N43)[nH]2)c1F)c1nnco1 (relative stereo) [Example 127, (3S*,8aS*)-3-(5-(2-((S*)-1-(1,3,4-oxadiazol-2-yl)ethoxy)-3-fluoropyridin-4-yl)-1H-imidazol-2-yl)-7-(3-chloro-2-fluoro-6-(1H-tetrazol-1-yl)phenyl)-2,3,8,8a-tetrahydroindolizin-5(1H)-one] | 10.9 | 12.9 |  |
| C[C@H](Oc1nccc(-c2cnc([C@@H]3CC[C@@H]4CC(c5c(-n6cnnn6)ccc(Cl)c5F)=CC(=O)N43)[nH]2)c1F)c1nnco1 (relative stereo) [Example 128, (3S*,8aR*)-3-(5-(2-((S*)-1-(1,3,4-oxadiazol-2-yl)ethoxy)-3-fluoropyridin-4-yl)-1H-imidazol-2-yl)-7-(3-chloro-2-fluoro-6-(1H-tetrazol-1-yl)phenyl)-2,3,8,8a-tetrahydroindolizin-5(1H)-one] | 6.1 | 12.8 |  |
| [2H]c1c(NC)nc(F)c(-c2cnc([C@H]3CC[C@@H]4CC(c5c(-n6cnnn6)ccc(Cl)c5F)=CC(=O)N43)[nH]2)c1[2H] (relative stereo) [Example 133, (3R*,8aR)-7-(3-chloro-2-fluoro-6-(1H-tetrazol-1-yl)phenyl)-3-(5-(2-fluoro-6-(methylamino)pyridin-3-yl-4,5-d2)-1H-imidazol-2-yl)-2,3,8,8a-tetrahydroindolizin-5(1H)-one] | 0.7 | 7.5 |  |
| O=C1C=C(c2c(-n3cnnn3)ccc(Cl)c2F)C[C@H]2CC[C@H](c3ncc(-c4c[nH]c5ccccc45)[nH]3)N12 (relative stereo) [Example 137, (3R*,8aR)-3-(5-(1H-indol-3-yl)-1H-imidazol-2-yl)-7-(3-chloro-2-fluoro-6-(1H-tetrazol-1-yl)phenyl)-2,3,8,8a-tetrahydroindolizin-5(1H)-one] | 4.6 | 7.7 |  |
| O=C1C=C(c2c(-n3cnnn3)ccc(Cl)c2F)C[C@H]2CC[C@@H](c3ncc(-c4ccnc(C5(O)CC5)c4Cl)[nH]3)N12 (relative stereo) [Example 155, (3*S,8aR)-3-(5-(3-chloro-2-(1-hydroxycyclopropyl)pyridin-4-yl)-1H-imidazol-2-yl)-7-(3-chloro-2-fluoro-6-(1H-tetrazol-1-yl)phenyl)-2,3,8,8a-tetrahydroindolizin-5(1H)-one] | 4.9 | 52.4 |  |
| O=C1C=C(c2c(-n3cnnn3)ccc(Cl)c2F)C[C@H]2CC[C@H](c3ncc(-c4ccnc(OC[C@@H]5COCCO5)c4F)[nH]3)N12 (relative stereo) [Example 156, (3*R,8aR)-3-(5-(2-(((S)-1,4-dioxan-2-yl)methoxy)-3-fluoropyridin-4-yl)-1H-imidazol-2-yl)-7-(3-chloro-2-fluoro-6-(1H-tetrazol-1-yl)phenyl)-2,3,8,8a-tetrahydroindolizin-5(1H)-one] | 13.8 | 19.1 |  |
| O=C1C=C(c2c(-n3cnnn3)ccc(Cl)c2F)C[C@H]2CC[C@@H](c3ncc(-c4ccnc(C(F)(F)CO)c4F)[nH]3)N12 (relative stereo) [Example 160, (3*S,8aR)-7-(3-chloro-2-fluoro-6-(1H-tetrazol-1-yl)phenyl)-3-(5-(2-(1,1-difluoro-2-hydroxyethyl)-3-fluoropyridin-4-yl)-1H-imidazol-2-yl)-2,3,8,8a-tetrahydroindolizin-5(1H)-one] | 8.4 | 27.8 |  |
| C[C@H](C#N)c1nccc(-c2cnc([C@@H]3CCC4CC(c5c(-n6cnnn6)ccc(Cl)c5F)=CC(=O)N43)[nH]2)c1F (relative stereo) [Example 163, (2*S)-2-(4-(2-((3S)-7-(3-chloro-2-fluoro-6-(1H-tetrazol-1-yl)phenyl)-5-oxo-1,2,3,5,8,8a-hexahydroindolizin-3-yl)-1H-imidazol-5-yl)-3-fluoropyridin-2-yl)propanenitrile] |  | 28.8 | 7.4 |
| C[C@@H](C#N)c1nccc(-c2cnc([C@@H]3CCC4CC(c5c(-n6cnnn6)ccc(Cl)c5F)=CC(=O)N43)[nH]2)c1F (relative stereo) [Example 164, (2*R)-2-(4-(2-((3S)-7-(3-chloro-2-fluoro-6-(1H-tetrazol-1-yl)phenyl)-5-oxo-1,2,3,5,8,8a-hexahydroindolizin-3-yl)-1H-imidazol-5-yl)-3-fluoropyridin-2-yl)propanenitrile] |  | 16.6 | 4.3 |
